# Measurements taken from ChEMBL document CHEMBL1149487, “A structure-guided approach to an orthogonal estrogen-receptor-based gene switch activated by ligands suitable for in vivo studies” (J Med Chem, 2006).
# Calls of active or inactive are those of the source. The calls are words filed in the database; no cut-off is given here.
# Legend:
# Estrogen receptor beta [1] = molecular target: T1, Estrogen receptor beta (Homo sapiens, UniProt Q92731)
# Estrogen receptor [2] = molecular target: T2, Estrogen receptor (Homo sapiens, UniProt P03372)
# T2 sequence (P03372 whole entry): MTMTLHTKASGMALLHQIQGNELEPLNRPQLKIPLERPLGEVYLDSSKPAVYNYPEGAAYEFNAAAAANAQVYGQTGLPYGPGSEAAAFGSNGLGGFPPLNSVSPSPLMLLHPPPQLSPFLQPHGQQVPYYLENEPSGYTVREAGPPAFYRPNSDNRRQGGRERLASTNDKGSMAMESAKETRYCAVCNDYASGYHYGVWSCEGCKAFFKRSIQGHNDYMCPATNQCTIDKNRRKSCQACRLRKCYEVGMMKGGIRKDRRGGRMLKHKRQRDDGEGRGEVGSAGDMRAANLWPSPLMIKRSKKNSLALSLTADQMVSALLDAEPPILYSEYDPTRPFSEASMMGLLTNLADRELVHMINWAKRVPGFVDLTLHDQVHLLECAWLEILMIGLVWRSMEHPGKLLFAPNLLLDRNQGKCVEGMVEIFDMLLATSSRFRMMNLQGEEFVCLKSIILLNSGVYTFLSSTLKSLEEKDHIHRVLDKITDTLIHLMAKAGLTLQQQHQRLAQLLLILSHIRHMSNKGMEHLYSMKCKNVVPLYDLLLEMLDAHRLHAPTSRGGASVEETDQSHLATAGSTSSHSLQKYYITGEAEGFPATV
# Description: Binding affinity to human ER alpha
# Estrogen receptor [3] = molecular target: Estrogen receptor (Homo sapiens, UniProt P03372, G521R/L384M/M421G)
# [4] = Cmax in BALB/c mouse at 4 mg/kg, ip; assay type: ADME, organism-based; design: dose 4 mg/kg, route intraperitoneal; conditions: in vivo
# Estrogen receptor beta [5] = molecular target: T1, Estrogen receptor beta; test: Binding affinity to human ER beta upto 10 uM
# Estrogen receptor [6] = molecular target: T2, Estrogen receptor; test: Binding affinity to wild type ERalpha
# [7] = molecular target: T3, Estrogen receptor (Homo sapiens) (UniProt P03372); assay type: functional, cell-based; conditions: HeLa
# T3 sequence (whole entry): T2 sequence (P03372 whole entry)
# [8] = Terminal half life in rat at 3 mg/kg, iv; assay type: ADME, organism-based; design: dose 3 mg/kg, route intravenous; conditions: in vivo, read-out: beta t1/2 (converted)
# [9] = Clearance in rat at 3 mg/kg, iv; assay type: ADME, organism-based; design: dose 3 mg/kg, route intravenous; conditions: in vivo
# Chain of Estrogen receptor (Homo sapiens, UniProt P03372, G521R/L384M/M421G) (P03372 whole entry L384M/M421G/G521R): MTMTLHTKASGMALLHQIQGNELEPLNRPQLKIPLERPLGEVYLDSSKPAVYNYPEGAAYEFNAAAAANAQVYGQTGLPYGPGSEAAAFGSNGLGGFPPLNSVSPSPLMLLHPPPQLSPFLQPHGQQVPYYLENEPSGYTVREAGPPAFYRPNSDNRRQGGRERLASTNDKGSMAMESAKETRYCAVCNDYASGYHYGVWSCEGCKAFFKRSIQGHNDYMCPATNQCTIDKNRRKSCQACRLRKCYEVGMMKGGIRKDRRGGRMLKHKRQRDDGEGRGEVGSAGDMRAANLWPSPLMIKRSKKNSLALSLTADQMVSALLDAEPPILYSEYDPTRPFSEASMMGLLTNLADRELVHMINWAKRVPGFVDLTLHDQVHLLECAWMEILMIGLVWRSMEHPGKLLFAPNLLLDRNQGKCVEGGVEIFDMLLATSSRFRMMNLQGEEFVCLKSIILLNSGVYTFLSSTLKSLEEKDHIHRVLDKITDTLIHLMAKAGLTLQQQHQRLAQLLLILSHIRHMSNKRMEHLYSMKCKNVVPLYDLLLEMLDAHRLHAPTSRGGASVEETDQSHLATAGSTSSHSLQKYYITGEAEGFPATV
# T1 sequence (Q92731 whole entry): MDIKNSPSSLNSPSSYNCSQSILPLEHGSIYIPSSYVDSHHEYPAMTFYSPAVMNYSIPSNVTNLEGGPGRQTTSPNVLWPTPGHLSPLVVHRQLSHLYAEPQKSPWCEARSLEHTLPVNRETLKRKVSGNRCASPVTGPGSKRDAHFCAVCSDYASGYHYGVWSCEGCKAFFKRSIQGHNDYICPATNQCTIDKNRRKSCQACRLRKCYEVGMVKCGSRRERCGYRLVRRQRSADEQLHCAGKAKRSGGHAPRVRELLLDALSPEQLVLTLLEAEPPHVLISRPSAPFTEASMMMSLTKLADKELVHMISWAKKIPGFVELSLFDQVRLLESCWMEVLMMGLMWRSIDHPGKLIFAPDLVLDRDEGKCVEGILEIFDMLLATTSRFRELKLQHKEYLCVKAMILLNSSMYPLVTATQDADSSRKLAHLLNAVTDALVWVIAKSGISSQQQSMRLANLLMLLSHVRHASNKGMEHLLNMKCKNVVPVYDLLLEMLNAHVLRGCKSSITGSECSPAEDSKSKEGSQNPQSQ
IC50 (Estrogen receptor beta [1]) [nM],IC50 (Estrogen receptor [2]) [nM],Compound,further results
230,710,O=C1CCC2(Cc3ccccc3)Cc3cc(O)ccc3C2=C1c1ccc(OCCN2CCOCC2)cc1 (configuration not stated),–
–,–,CC1=C2c3ccc4[nH]nnc4c3CC2(Cc2ccc(F)cc2)CCC1=O (configuration not stated),Activity (Estrogen receptor beta [5]): inactive
560,1200,CN(C)CCOc1ccc(C2=C3c4ccc(O)cc4CC3(Cc3ccccc3)CCC2=O)cc1 (configuration not stated),–
–,–,CC1=C2c3ccc(O)cc3CC2(Cc2ccc(Cl)cc2)CCC1=O (configuration not stated),IC50 (Estrogen receptor [6]): 6.8 µM
> 10000,> 10000,O=C1C=C2c3ccc4[nH]ncc4c3CC2(Cc2ccccc2)CC1 (configuration not stated),–
1200,> 10000,CC1=C2c3ccc4[nH]ncc4c3CC2(Cc2ccccc2)CCC1=O (configuration not stated),Activity [7]: inactive
1600,> 10000,CC1=C2c3ccc4[nH]ncc4c3CC2(Cc2cccc(F)c2)CCC1=O (configuration not stated),–
–,1500,CC1=C2c3ccc(O)cc3CC2(Cc2ccccc2)CCC1=O (configuration not stated),–
180,380,O=C1CCC2(Cc3ccccc3)Cc3cc(O)ccc3C2=C1c1ccc(OCCN2CCCCC2)cc1 (configuration not stated),EC50 (Estrogen receptor [3]): 14 nM; half-life [8]: 120 min; clearance [9]: 22 mL/min/kg
560,3400,CC1=C2c3ccc4[nH]ncc4c3CC2(Cc2ccccc2F)CCC1=O (configuration not stated),–
5800,> 10000,CC1=C2c3ccc4nn[nH]c4c3CC2(Cc2ccccc2)CCC1=O (configuration not stated),–
> 1000,–,CC1=C2c3ccc4[nH]ncc4c3CC2(Cc2ccc(F)cc2)CCC1=O (configuration not stated),–
100,220,O=C1CCC2(Cc3ccccc3)Cc3cc(O)ccc3C2=C1c1ccc(O)cc1 (configuration not stated),EC50 (Estrogen receptor [3]): 11 nM; half-life [8]: 90 min; clearance [9]: 39 mL/min/kg
> 10000,–,CC1=C2c3ccc4nn[nH]c4c3CC2(Cc2ccc(F)cc2)CCC1=O (configuration not stated),–

Compound,IC50 (Estrogen receptor beta [1]) [nM],IC50 (Estrogen receptor [2]) [nM],further results
O=C1CCC2(Cc3ccc(Cl)cc3)Cc3cc(O)ccc3C2=C1c1ccc(OCCN2CCCCC2)cc1 (configuration not stated),2200,1100,EC50 (Estrogen receptor [3]): 41 nM; Cmax [4]: 500 nM
O=C1CCC2(Cc3ccccc3)Cc3c(ccc4[nH]ncc34)C2=C1c1ccc(OCCN2CCCCC2)cc1 (configuration not stated),130,620,EC50 (Estrogen receptor [3]): 300 nM
